Source: patent publication US20150181873A1, “HERBICIDE-RESISTANT SUNFLOWER PLANTS, POLYNUCLEOTIDES ENCODING HERBICIDE=RESISTANT ACETO HYDROXY ACID SYNTHASE LARGE SUBUNIT PROTEINS, AND METHODS OF USE” (NIDERA S.A., priority 2013, published 2015)
“And” between values parts separate entries of the source, which are not always exact repeats. Equal values may be shown once.

System: sunflower genotypes carrying the A122T mutation event
Assay: Greenhouse imazapir dose response, A122T genotypes together
Type: in vivo, Helianthus annuus
Conditions: 14 DAT; for plant height, Dif with Control / root dry weight, Dif with control / biomass accumulation, Dif with control: A122T mean; for Phytotoxicity Index, Dif A205V − A122T / biomass accumulation, Dif A122T − A205V / plant height, Dif A122T − A205V / root dry weight, Dif A122T − A205V: difference of group means; for biomass accumulation, % of untreated, Mean / plant height, % of untreated, Mean / root dry weight, % of untreated, Mean: six A122T genotypes; for Phytotoxicity Index, Mean: three A122T genotypes
Protocol: A greenhouse study was conducted to quantify and contrast the imazapir sensivity of the mutants A122T and A205V in different genetic backgrounds at the whole plant level in sunflower. Seeds of the different sunflower lines that were used in this study were obtained under field conditions.
Seeds were sown in Petri dishes and, after germination, plantlets were transplanted to pots of 10 cm of diameter in a potting media consisting of equal parts of vermiculite, soil and sand. Plants were grown in a greenhouse under natural light conditions supplemented with 400 W sodium halide lamps to provide a 16 hrs daylength. Day/night temperatures were 25 and 20° C., respectively. At the V2 stage 10 plants of each genotype were randomly assigned to each treatment consisting of […] imazapir doses (0, 40, 80, 160, 240, 320, 400 and 480 g ai/ha), and a zero-time biomass determination. Experiment was arranged as a randomized block design with a full factorial (sunflower line×treatment) arrangement of treatments and 10 replications.
On the day of herbicide application ten plants of each genotype were cut at the cotyledonal node and dried at 60° C. for 48 hrs zero-time for dried weight determination. […] Height was determined as the distance between the cotyledonal node and the apex of each plant. For root biomass determination, each plant was taken from the pot and the potting media was washed out from the roots. Above ground biomass data from each line were converted to biomass accumulation after application by subtracting the appropriate average zero-time biomass from each sample. Dry biomass data were converted to percentages of the untreated control plants within each line to allow direct comparisons between groups.

CC(C)C1(C)N=C(c2ncccc2C(=O)O)NC1=O (stereo not shown) [Imazapyr, imazapyr]
plant height, Dif with Control (3x (240 g ai/ha)): 4.4% | root dry weight, Dif with control (3x (240 g ai/ha)): 10.6% | biomass accumulation, Dif with control (4x (320 g ai/ha)): 12.2% | plant height, Dif with Control (4x (320 g ai/ha)): 6.3% | root dry weight, Dif with control (4x (320 g ai/ha)): 18.6% | biomass accumulation, Dif with control (5x (400 g ai/ha)): 20.7% | plant height, Dif with Control (5x (400 g ai/ha)): 10.2% | root dry weight, Dif with control (5x (400 g ai/ha)): 21.3% | plant height, Dif with Control (6x (480 g ai/ha)): 15.8% | root dry weight, Dif with control (6x (480 g ai/ha)): 38.3% | biomass accumulation, Dif with control (6x (480 g ai/ha), listed as imazapir): 25% and 25.4% | Phytotoxicity Index, Dif A205V − A122T (0.5x (40 g ai/ha)): −0.29 | biomass accumulation, Dif A122T − A205V (0.5x (40 g ai/ha)): 4.3% | plant height, Dif A122T − A205V (0.5x (40 g ai/ha)): 4.9% | root dry weight, Dif A122T − A205V (0.5x (40 g ai/ha)): 12.7% | Phytotoxicity Index, Dif A205V − A122T (1x (80 g ai/ha)): −0.29 | biomass accumulation, Dif A122T − A205V (1x (80 g ai/ha)): 14.5% | plant height, Dif A122T − A205V (1x (80 g ai/ha)): 9.4% | root dry weight, Dif A122T − A205V (1x (80 g ai/ha)): 26.7% | Phytotoxicity Index, Dif A205V − A122T (2x (160 g ai/ha)): 1.87 | biomass accumulation, Dif A122T − A205V (2x (160 g ai/ha)): 33.2% | plant height, Dif A122T − A205V (2x (160 g ai/ha)): 28.0% | root dry weight, Dif A122T − A205V (2x (160 g ai/ha)): 43.6% | Phytotoxicity Index, Dif A205V − A122T (3x (240 g ai/ha)): 4.81 | biomass accumulation, Dif A122T − A205V (3x (240 g ai/ha)): 45.3% | plant height, Dif A122T − A205V (3x (240 g ai/ha)): 45.3% | root dry weight, Dif A122T − A205V (3x (240 g ai/ha)): 50.2% | Phytotoxicity Index, Dif A205V − A122T (4x (320 g ai/ha)): 6.92 | biomass accumulation, Dif A122T − A205V (4x (320 g ai/ha)): 52.4% | plant height, Dif A122T − A205V (4x (320 g ai/ha)): 59.9% | root dry weight, Dif A122T − A205V (4x (320 g ai/ha)): 50.3% | Phytotoxicity Index, Dif A205V − A122T (5x (400 g ai/ha)): 7.38 | biomass accumulation, Dif A122T − A205V (5x (400 g ai/ha)): 46.9% | plant height, Dif A122T − A205V (5x (400 g ai/ha)): 57.8% | root dry weight, Dif A122T − A205V (5x (400 g ai/ha)): 47.9% | Phytotoxicity Index, Dif A205V − A122T (6x (480 g ai/ha)): 7.03 | biomass accumulation, Dif A122T − A205V (6x (480 g ai/ha)): 44.6% | plant height, Dif A122T − A205V (6x (480 g ai/ha)): 54.0% | root dry weight, Dif A122T − A205V (6x (480 g ai/ha)): 37.3% | biomass accumulation, % of untreated, Mean (0.5x (40 g ai/ha)): 98.9% | plant height, % of untreated, Mean (0.5x (40 g ai/ha)): 99.4% | root dry weight, % of untreated, Mean (0.5x (40 g ai/ha)): 99.9% | biomass accumulation, % of untreated, Mean (1x (80 g ai/ha)): 96.8% | plant height, % of untreated, Mean (1x (80 g ai/ha)): 98.6% | root dry weight, % of untreated, Mean (1x (80 g ai/ha)): 97.5% | biomass accumulation, % of untreated, Mean (2x (160 g ai/ha)): 94.9% | plant height, % of untreated, Mean (2x (160 g ai/ha)): 97.3% | root dry weight, % of untreated, Mean (2x (160 g ai/ha)): 94.1% | biomass accumulation, % of untreated, Mean (3x (240 g ai/ha)): 92.8% | plant height, % of untreated, Mean (3x (240 g ai/ha)): 95.6% | root dry weight, % of untreated, Mean (3x (240 g ai/ha)): 89.4% | biomass accumulation, % of untreated, Mean (4x (320 g ai/ha)): 87.8% | plant height, % of untreated, Mean (4x (320 g ai/ha)): 93.7% | root dry weight, % of untreated, Mean (4x (320 g ai/ha)): 81.4% | biomass accumulation, % of untreated, Mean (5x (400 g ai/ha)): 79.3% | plant height, % of untreated, Mean (5x (400 g ai/ha)): 89.8% | root dry weight, % of untreated, Mean (5x (400 g ai/ha)): 78.7% | biomass accumulation, % of untreated, Mean (6x (480 g ai/ha)): 74.6% | plant height, % of untreated, Mean (6x (480 g ai/ha)): 84.2% | root dry weight, % of untreated, Mean (6x (480 g ai/ha)): 61.7% | Phytotoxicity Index, Mean (0.5x (40 g ai/ha)): 0.3 | Phytotoxicity Index, Mean (1x (80 g ai/ha)): 0.3 | Phytotoxicity Index, Mean (2x (160 g ai/ha)): 0.3 | Phytotoxicity Index, Mean (3x (240 g ai/ha)): 0.3 | Phytotoxicity Index, Mean (4x (320 g ai/ha)): 0.5 | Phytotoxicity Index, Mean (5x (400 g ai/ha)): 0.8 | Phytotoxicity Index, Mean (6x (480 g ai/ha)): 1.2
